Like-named read-outs stand apart in the source and are kept apart here.
Assays:
Assay in all cases: biochemical
Type in all cases: biochemical
382 unique human kinases [1] = target: T1, 382 unique human kinases (Homo sapiens, UniProt Q02763, Y897C); conditions: kinase TIE2 (Y897C), compound 10 uM; for remaining activity at 10 µM: read-out: % Enzyme Activity (relative to DMSO controls)
T1 construct: purchased Reaction Biology (HotSpot contract assay)

382 unique human kinases [2] = target: T2, 382 unique human kinases (Homo sapiens, UniProt Q9NYY3); conditions: kinase PLK2, compound 10 uM; for remaining activity at 10 µM: read-out: % Enzyme Activity (relative to DMSO controls)
T2 construct: purchased Reaction Biology (HotSpot contract assay)
T2 sequence (Q9NYY3 whole entry): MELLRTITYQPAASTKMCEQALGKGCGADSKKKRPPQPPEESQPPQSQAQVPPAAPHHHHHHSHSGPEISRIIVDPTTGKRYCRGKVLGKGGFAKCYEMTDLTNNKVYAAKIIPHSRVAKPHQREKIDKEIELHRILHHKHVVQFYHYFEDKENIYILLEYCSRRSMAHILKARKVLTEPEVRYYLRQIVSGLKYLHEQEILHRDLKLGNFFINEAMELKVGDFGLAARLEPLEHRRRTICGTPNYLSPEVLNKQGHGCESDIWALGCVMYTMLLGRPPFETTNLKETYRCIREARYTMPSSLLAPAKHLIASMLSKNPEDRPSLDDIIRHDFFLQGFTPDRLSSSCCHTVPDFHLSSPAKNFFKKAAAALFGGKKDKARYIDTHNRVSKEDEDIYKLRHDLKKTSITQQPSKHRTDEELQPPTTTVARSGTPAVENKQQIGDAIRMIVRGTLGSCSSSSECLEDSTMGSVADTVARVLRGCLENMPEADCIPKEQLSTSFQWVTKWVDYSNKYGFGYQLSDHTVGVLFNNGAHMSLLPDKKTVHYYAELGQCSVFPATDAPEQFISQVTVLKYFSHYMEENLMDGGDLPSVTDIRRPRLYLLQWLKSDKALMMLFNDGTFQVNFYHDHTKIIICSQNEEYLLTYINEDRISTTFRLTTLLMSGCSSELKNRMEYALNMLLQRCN

382 unique human kinases [3] = target: T3, 382 unique human kinases (Homo sapiens, UniProt P08581, D1228N); conditions: c-MET (D1228N), compound at 10 uM, duplicate values; for remaining activity at 10 µM: read-out: % Enzyme Activity (relative to DMSO controls)
T3 construct: purchased Reaction Biology (HotSpot contract assay)

382 unique human kinases [4] = target: T4, 382 unique human kinases (Homo sapiens, UniProt P09619); conditions: kinase PDGFRb, compound 10 uM; for remaining activity at 10 µM: read-out: % Enzyme Activity (relative to DMSO controls)
T4 construct: purchased Reaction Biology (HotSpot contract assay)

382 unique human kinases [5] = target: T5, 382 unique human kinases (Homo sapiens, UniProt Q9BXA6); conditions: kinase SSTK/TSSK6, compound 10 uM; for remaining activity at 10 µM: read-out: % Enzyme Activity (relative to DMSO controls)
T5 construct: purchased Reaction Biology (HotSpot contract assay)

382 unique human kinases [6] = target: T6, 382 unique human kinases (Homo sapiens, UniProt P53778); conditions: P38g, compound at 10 uM, duplicate values; for remaining activity at 10 µM: read-out: % Enzyme Activity (relative to DMSO controls)
T6 construct: purchased Reaction Biology (HotSpot contract assay)
T6 sequence (P53778 1-367): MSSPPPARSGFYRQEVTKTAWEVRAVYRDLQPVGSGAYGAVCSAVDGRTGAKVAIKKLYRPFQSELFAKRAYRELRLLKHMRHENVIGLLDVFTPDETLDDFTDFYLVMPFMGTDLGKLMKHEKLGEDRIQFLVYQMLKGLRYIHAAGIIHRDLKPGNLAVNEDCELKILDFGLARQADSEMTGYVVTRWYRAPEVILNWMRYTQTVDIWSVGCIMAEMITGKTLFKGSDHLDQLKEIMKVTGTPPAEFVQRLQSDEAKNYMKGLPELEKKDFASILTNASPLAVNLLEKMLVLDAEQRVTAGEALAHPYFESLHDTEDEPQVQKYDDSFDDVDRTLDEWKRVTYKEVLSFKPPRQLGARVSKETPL

382 unique human kinases [7] = target: T7, 382 unique human kinases (Homo sapiens, UniProt P07949, E762Q); conditions: compound 10 uM; for remaining activity at 10 µM: read-out: % Enzyme Activity (relative to DMSO controls)
T7 construct: purchased Reaction Biology (HotSpot contract assay)
T7 sequence (P07949 29-1114 E762Q): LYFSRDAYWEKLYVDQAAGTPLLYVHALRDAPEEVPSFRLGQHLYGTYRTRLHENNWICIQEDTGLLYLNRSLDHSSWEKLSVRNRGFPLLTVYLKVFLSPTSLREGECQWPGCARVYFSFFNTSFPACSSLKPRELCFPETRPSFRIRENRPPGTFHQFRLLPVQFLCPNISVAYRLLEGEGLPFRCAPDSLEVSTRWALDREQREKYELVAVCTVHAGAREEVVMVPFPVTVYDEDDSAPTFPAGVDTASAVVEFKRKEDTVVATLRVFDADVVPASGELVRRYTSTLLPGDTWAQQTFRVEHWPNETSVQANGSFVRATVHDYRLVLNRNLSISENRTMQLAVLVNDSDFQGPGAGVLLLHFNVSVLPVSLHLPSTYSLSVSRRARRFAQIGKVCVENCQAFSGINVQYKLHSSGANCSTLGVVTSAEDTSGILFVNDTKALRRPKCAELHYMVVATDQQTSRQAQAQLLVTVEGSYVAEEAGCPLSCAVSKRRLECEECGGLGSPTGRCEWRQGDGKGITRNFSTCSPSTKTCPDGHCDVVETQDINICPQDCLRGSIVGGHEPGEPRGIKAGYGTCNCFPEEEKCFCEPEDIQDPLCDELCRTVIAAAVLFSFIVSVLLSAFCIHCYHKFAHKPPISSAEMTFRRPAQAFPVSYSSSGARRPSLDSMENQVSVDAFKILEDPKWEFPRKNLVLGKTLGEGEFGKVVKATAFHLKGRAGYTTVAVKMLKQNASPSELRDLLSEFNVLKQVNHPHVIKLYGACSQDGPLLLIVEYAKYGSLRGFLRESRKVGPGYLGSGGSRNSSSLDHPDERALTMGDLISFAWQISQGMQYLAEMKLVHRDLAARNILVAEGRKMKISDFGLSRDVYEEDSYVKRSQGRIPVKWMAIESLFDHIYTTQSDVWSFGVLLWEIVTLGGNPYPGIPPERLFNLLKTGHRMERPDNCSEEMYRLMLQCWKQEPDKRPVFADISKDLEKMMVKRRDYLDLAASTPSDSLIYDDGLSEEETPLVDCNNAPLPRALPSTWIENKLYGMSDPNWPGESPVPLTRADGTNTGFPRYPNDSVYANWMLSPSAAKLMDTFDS

382 unique human kinases [8] = target: T8, 382 unique human kinases (Homo sapiens, UniProt P08581, Y1230H); conditions: c-MET (Y1230H), 10 uM; for remaining activity at 10 µM: read-out: % Enzyme Activity (relative to DMSO controls)
T8 construct: purchased Reaction Biology (HotSpot contract assay)

382 unique human kinases [9] = target: T9, 382 unique human kinases (Homo sapiens, UniProt P22607, K650Q); conditions: kinase FGFR3 (K650Q), compound 10 uM; for remaining activity at 10 µM: read-out: % Enzyme Activity (relative to DMSO controls)
T9 construct: purchased Reaction Biology (HotSpot contract assay)

382 unique human kinases [10] = target: T10, 382 unique human kinases (Homo sapiens, UniProt Q9UM73, L1196M); conditions: ALK (L1196M), 10 uM; for remaining activity at 10 µM: read-out: % Enzyme Activity (relative to DMSO controls)
T10 construct: purchased Reaction Biology (HotSpot contract assay)
T10 sequence (Q9UM73 19-1620 L1196M): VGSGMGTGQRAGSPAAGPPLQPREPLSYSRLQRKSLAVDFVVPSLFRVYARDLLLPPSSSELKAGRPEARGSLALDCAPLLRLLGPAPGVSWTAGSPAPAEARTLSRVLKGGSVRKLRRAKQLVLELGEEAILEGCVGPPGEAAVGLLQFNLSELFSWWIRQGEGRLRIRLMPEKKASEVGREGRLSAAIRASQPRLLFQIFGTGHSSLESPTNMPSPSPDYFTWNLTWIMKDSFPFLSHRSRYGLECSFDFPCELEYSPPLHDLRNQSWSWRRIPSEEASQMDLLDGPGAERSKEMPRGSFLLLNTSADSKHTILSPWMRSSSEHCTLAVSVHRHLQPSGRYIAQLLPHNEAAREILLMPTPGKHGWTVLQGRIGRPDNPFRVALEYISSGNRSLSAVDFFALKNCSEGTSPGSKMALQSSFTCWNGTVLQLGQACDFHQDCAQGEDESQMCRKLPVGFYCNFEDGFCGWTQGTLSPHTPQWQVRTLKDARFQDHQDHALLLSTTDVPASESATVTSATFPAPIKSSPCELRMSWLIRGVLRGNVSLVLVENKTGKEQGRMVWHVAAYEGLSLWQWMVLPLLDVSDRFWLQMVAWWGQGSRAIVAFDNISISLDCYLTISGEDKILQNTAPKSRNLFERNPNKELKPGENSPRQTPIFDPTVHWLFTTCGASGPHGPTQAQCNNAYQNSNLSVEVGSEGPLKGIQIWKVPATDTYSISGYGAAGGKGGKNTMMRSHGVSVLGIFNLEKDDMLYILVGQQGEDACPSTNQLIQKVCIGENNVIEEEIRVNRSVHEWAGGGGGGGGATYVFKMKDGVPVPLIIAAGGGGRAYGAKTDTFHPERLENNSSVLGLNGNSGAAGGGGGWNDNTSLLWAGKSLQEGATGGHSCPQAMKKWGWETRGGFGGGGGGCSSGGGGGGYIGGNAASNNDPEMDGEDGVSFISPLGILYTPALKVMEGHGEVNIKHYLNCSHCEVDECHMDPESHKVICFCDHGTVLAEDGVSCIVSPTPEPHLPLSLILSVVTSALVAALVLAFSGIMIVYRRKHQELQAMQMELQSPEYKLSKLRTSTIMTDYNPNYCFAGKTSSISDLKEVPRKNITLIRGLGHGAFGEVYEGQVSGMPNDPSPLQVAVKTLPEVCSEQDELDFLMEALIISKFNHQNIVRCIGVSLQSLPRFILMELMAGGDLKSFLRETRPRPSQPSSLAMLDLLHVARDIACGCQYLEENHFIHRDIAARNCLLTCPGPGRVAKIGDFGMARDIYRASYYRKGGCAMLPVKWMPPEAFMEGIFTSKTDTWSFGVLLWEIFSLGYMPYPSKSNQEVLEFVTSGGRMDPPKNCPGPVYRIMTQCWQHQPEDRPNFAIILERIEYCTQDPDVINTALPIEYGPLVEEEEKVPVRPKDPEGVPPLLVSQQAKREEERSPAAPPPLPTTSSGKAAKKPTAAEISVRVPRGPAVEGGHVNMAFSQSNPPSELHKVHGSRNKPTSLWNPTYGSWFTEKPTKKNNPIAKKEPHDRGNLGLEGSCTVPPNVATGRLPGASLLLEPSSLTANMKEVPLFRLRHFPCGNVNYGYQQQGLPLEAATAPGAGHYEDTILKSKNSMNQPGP

382 unique human kinases [11] = target: T11, 382 unique human kinases (Homo sapiens, UniProt Q9UIK4); conditions: DAPK2, 10 uM; for remaining activity at 10 µM: read-out: % Enzyme Activity (relative to DMSO controls)
T11 construct: purchased Reaction Biology (HotSpot contract assay)

382 unique human kinases [12] = target: T12, 382 unique human kinases (Homo sapiens, UniProt P12931); conditions: c-Src, [ATP] 15 µM
T12 construct: purchased Reaction Biology (HotSpot contract assay)
T12 sequence (P12931 whole entry): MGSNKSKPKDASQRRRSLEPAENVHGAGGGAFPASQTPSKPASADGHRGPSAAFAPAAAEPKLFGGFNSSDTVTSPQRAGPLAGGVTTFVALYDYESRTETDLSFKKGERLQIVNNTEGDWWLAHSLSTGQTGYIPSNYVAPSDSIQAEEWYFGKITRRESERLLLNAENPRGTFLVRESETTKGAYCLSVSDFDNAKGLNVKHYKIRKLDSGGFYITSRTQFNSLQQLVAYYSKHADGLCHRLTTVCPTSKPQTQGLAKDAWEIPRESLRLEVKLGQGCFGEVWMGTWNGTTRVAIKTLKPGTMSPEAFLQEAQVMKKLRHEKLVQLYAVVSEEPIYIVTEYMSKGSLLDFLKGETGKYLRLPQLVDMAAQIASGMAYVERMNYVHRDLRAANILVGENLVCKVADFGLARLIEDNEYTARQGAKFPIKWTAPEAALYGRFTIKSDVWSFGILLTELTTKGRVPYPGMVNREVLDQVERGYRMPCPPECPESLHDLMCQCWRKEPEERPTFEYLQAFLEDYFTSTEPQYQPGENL

382 unique human kinases [13] = target: T13, 382 unique human kinases (Homo sapiens, UniProt O60285); conditions: ARK5/NUAK1, 10 uM; for remaining activity at 10 µM: read-out: % Enzyme Activity (relative to DMSO controls)
T13 construct: purchased Reaction Biology (HotSpot contract assay)
T13 sequence (O60285 1-661): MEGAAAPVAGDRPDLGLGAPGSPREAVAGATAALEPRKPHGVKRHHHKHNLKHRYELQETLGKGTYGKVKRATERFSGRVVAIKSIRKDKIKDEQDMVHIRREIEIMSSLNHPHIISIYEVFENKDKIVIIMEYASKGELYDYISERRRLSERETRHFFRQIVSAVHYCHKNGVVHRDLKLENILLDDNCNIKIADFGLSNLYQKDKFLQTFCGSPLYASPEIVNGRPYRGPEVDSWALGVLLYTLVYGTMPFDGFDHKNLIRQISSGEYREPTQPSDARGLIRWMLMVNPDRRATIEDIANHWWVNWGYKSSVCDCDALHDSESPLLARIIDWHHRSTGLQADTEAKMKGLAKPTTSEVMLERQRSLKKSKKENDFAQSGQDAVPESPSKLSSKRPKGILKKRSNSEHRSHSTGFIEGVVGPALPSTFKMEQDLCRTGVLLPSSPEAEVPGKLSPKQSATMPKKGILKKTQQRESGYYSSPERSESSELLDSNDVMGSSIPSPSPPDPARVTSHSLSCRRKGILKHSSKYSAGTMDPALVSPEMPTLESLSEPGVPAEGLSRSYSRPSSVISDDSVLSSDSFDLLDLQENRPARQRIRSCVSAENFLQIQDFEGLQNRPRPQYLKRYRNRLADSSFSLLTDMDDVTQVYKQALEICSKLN

382 unique human kinases [14] = target: T14, 382 unique human kinases (Homo sapiens, UniProt Q6PHR2); conditions: ULK3, 10 uM; for remaining activity at 10 µM: read-out: % Enzyme Activity (relative to DMSO controls)
T14 construct: purchased Reaction Biology (HotSpot contract assay)
T14 sequence (Q6PHR2 1-472): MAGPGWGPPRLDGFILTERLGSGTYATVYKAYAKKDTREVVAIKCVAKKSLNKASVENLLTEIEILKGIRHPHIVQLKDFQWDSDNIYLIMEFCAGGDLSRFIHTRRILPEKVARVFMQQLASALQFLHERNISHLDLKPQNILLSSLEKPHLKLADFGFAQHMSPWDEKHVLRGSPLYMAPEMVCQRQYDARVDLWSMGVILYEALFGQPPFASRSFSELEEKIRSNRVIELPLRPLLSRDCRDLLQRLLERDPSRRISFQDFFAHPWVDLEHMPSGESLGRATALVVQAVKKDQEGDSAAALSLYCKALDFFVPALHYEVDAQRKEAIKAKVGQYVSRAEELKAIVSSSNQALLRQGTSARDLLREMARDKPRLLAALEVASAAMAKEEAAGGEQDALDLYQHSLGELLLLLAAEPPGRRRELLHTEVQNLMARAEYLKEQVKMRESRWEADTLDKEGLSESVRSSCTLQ

382 unique human kinases [15] = target: T15, 382 unique human kinases (Homo sapiens, UniProt P16234, V561D); conditions: PDGFRa (V561D), 10 uM; for remaining activity at 10 µM: read-out: % Enzyme Activity (relative to DMSO controls)
T15 construct: purchased Reaction Biology (HotSpot contract assay)
T15 sequence (P16234 24-1089 V561D): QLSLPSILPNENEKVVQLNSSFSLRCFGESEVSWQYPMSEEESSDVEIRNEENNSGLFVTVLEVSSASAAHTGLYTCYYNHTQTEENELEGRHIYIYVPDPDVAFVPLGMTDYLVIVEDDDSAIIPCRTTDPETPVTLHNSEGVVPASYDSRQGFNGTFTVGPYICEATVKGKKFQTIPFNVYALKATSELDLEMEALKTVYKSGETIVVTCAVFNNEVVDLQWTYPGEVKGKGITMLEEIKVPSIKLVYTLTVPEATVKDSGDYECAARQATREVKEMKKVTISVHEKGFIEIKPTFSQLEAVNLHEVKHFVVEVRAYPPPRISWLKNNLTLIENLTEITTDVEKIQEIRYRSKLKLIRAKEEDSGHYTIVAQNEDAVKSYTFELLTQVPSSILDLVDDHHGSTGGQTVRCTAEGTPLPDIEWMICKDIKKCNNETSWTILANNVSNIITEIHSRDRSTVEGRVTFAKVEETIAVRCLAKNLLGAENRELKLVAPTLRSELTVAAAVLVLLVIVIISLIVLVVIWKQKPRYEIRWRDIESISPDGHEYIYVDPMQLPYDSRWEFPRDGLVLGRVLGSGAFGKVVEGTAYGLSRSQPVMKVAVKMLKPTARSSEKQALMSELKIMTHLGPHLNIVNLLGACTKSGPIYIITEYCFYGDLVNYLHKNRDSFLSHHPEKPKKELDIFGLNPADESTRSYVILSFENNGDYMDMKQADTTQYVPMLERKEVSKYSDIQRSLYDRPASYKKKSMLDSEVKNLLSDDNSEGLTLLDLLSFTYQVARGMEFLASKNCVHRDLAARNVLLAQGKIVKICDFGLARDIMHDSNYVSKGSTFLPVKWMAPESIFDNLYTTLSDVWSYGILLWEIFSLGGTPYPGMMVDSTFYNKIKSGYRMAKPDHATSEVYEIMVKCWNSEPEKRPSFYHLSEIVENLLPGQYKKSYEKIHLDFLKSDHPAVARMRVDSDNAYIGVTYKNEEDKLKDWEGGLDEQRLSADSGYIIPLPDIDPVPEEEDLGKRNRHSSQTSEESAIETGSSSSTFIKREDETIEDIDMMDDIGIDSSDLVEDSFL

[16] = compound 10 uM, read-out: % Enzyme Activity (relative to DMSO controls)

Compound | remaining activity at 10 µM (382 unique human kinases [1]) | remaining activity at 10 µM (382 unique human kinases [2]) | remaining activity at 10 µM (382 unique human kinases [3]) | remaining activity at 10 µM (382 unique human kinases [4]) | remaining activity at 10 µM (382 unique human kinases [5]) | remaining activity at 10 µM (382 unique human kinases [6]) | remaining activity at 10 µM (382 unique human kinases [7]; kinase RET (E762Q)) | remaining activity at 10 µM (382 unique human kinases [8]) | remaining activity at 10 µM (382 unique human kinases [9]) | remaining activity at 10 µM (382 unique human kinases [10]) | remaining activity at 10 µM (382 unique human kinases [11]) | remaining activity at 10 µM (382 unique human kinases [12]; [16]) | remaining activity at 10 µM (382 unique human kinases [13]) | remaining activity at 10 µM (382 unique human kinases [14]) | remaining activity at 10 µM (382 unique human kinases [15]) | other results
CC(C)c1cc(-c2n[nH]c(=O)n2-c2ccc3c(ccn3C)c2)c(O)cc1O [Ganetespib (STA9090)] | 88% | 86.1% | 108% | 92.1% | 86.5% | 119% | 93.8% | 108% | 84.5% | 70.2% |  |  |  |  |  | remaining activity at 10 µM (382 unique human kinases [7]; […]): 94.2%
CC(C)c1cc(-c2n[nH]c(=O)n2-c2ccc3c(ccn3C)c2)c(O)cc1O [Ganetespib] |  |  |  |  |  |  |  |  |  |  | 96.6% | 9.14% | 97.3% | 100% | 99.7% | remaining activity at 1 µM (382 unique human kinases [12]; compound 1 uM, read-out: % Enzyme Activity (relative to DMSO controls)): 38.8%
CCNC(=O)c1noc(-c2cc(C(C)C)c(O)cc2O)c1-c1ccc(CN2CCOCC2)cc1 [Luminespib] |  |  |  |  |  |  |  |  |  |  | 95.4% | 36.4% | 93.9% | 94.8% | 104% | % Enzyme Activity (relative to DMSO controls) (382 unique human kinases [11]): 94.93%; % Enzyme Activity (relative to DMSO controls) (382 unique human kinases [12]; compound 10 uM): 33.43%; % Enzyme Activity (relative to DMSO controls) (382 unique human kinases [13]): 92.57%; % Enzyme Activity (relative to DMSO controls) (382 unique human kinases [14]): 91.59%; % Enzyme Activity (relative to DMSO controls) (382 unique human kinases [15]): 103.61%
CCNC(=O)c1noc(-c2cc(C(C)C)c(O)cc2O)c1-c1ccc(CN2CCOCC2)cc1 [Luminespib (AUY-922)] | 100% | 106% | 107% | 83.2% | 122% | 106% | 96.6% | 79.7% | 107% | 100% |  |  |  |  |  | % Enzyme Activity (relative to DMSO controls) (382 unique human kinases [1]): 99.30%; % Enzyme Activity (relative to DMSO controls) (382 unique human kinases [2]): 105.08%; % Enzyme Activity (relative to DMSO controls) (382 unique human kinases [3]): 105.32%; % Enzyme Activity (relative to DMSO controls) (382 unique human kinases [4]): 81.53%; % Enzyme Activity (relative to DMSO controls) (382 unique human kinases [5]): 122.22%; % Enzyme Activity (relative to DMSO controls) (382 unique human kinases [6]): 104.66%; % Enzyme Activity (relative to DMSO controls) (382 unique human kinases [7]; kinase RET (E762Q)): 89.64%; % Enzyme Activity (relative to DMSO controls) (382 unique human kinases [8]): 78.17%; % Enzyme Activity (relative to DMSO controls) (382 unique human kinases [9]): 105.48%; % Enzyme Activity (relative to DMSO controls) (382 unique human kinases [10]): 98.66%

— publication PMC8550792, “Evolution of kinase polypharmacology across HSP90 drug discovery” (Cell Chemical Biology, 2021)
